Values joined by “and” are separate entries in the source; they are usually repeats but may differ in a detail not shown here. Equal entries are not always repeated.
Key:
[1] = test system: A. baumannii mutant AB522; assay: Dose dependent resistance suppression (antibiotic MIC with compound) in AB522; format: cell-based, Acinetobacter baumannii
Description: There was no notable reduction in antibiotic MIC observed with either compound and both strains 522 and 1310. […] Even at the highest concentration, no potentiation was observed.
Day Cultures (6 h) were subcultured to 5×10^5 CFU/mL in cation adjusted Mueller-Hinton broth (CAMHB). […] One milliliter of the resulting solution was aliquoted into a separate culture tube and was dosed with antibiotic so that the resulting concentration was the highest desirable concentration to be tested. Bacteria treated with antibiotic alone were used as a control. Row one of a 96-well plate was filled with 200 μL of the antibiotic/compound solution, and the remaining rows were filled with 100 μL of the remaining 4 mL bacterial subculture. The wells in row one were mixed five times before 100 μL was transferred to the following row (row two). Row two was then mixed five times, and 100 μL was transferred to row three. This process was repeated until the second to last row had been reached. The last row is left unexposed to antibiotic in order to serve as a negative control. The antibiotic only treated bacteria was plated by aliquoting 200 μL of the treated bacteria into row one and filling the remaining rows with untreated bacteria from the original bacteria subculture. The rows were mixed in the same way as described above. Plates were covered with Glad Press n'Seal and were incubated under stationary conditions at 37° C. for 16 hours. MIC values were recorded as the lowest concentration at which no bacterial growth was observed. Fold reductions were determined by comparison of the compound treated wells with the antibiotic only treated control wells.

A. baumannii strain 5075 = assay: Time kill curve; format: cell-based, Acinetobacter baumannii; conditions: for growth similar to the control after: AB5075, time kill curve; for Initial toxicity seen until (time point): AB5075 growth, time kill curve
Description: A. baumannii strain 5075 was grown in the presence of compound 1 at either 20 μM or 30 μM, and samples were plated at 2, 4, 6, 8, and 24 hour time points. Initial toxicity was seen until the 4-hour time point for 20 μM and 8-hour time point for 30 μM; however, growth was similar to the control after 6 hours for 20 μM and 24 hours for 30 μM.
A. baumannii 5075 was grown overnight (16 hours) in CAMHB at 37° C. with shaking. This culture was then subcultured to 5×10^5 CFU/mL in fresh CAMHB. The inoculated media was aliquoted (3 mL) into culture tubes, and the compound was added from 100 mM stock solutions. Untreated inoculated culture tubes served as the control, and tubes were incubated at 37° C. with shaking. Samples were taken at 2, 4, 6, 8, and 24 hour time points and were serially diluted in fresh CAMHB and plated on LB agar. Plates were incubated under stationary conditions overnight at 37° C. After incubation, colonies were enumerated and growth curves were constructed.

Nc1nc(-c2ccc(NC(=O)c3cc(Cl)cc(Cl)c3)cc2)c[nH]1 [Compound 1]
Azithromycin MIC ([1]; compound Conc. Tested 2 (μM)): 8 µg/mL and 4 µg/mL | Clarithromycin MIC ([1]; compound Conc. Tested 2 (μM)): 1 µg/mL | Erythromycin MIC ([1]; compound Conc. Tested 2 (μM)): 2 µg/mL | Vancomycin MIC ([1]; compound Conc. Tested 2 (μM)): 64 µg/mL | Azithromycin MIC ([1]; compound Conc. Tested 3 (μM)): 4 µg/mL and 8 µg/mL | Clarithromycin MIC ([1]; compound Conc. Tested 3 (μM)): 1 µg/mL | Erythromycin MIC ([1]; compound Conc. Tested 3 (μM)): 2 µg/mL and 4 µg/mL | Vancomycin MIC ([1]; compound Conc. Tested 3 (μM)): 64 µg/mL | Azithromycin MIC ([1]; compound Conc. Tested 4 (μM)): 4 µg/mL | Clarithromycin MIC ([1]; compound Conc. Tested 4 (μM)): 1 µg/mL | Erythromycin MIC ([1]; compound Conc. Tested 4 (μM)): 4 µg/mL and 2 µg/mL | Vancomycin MIC ([1]; compound Conc. Tested 4 (μM)): 32 µg/mL | Azithromycin MIC ([1]; compound Conc. Tested 5 (μM)): 4 µg/mL | Clarithromycin MIC ([1]; compound Conc. Tested 5 (μM)): 0.5 µg/mL | Erythromycin MIC ([1]; compound Conc. Tested 5 (μM)): 2 µg/mL | Vancomycin MIC ([1]; compound Conc. Tested 5 (μM)): 32 µg/mL | growth similar to the control after (A. baumannii strain 5075; compound alone at 20 μM): 6 h | Initial toxicity seen until (time point) (A. baumannii strain 5075; compound alone at 20 μM): 4 h | growth similar to the control after (A. baumannii strain 5075; compound alone at 30 μM): 24 h | Initial toxicity seen until (time point) (A. baumannii strain 5075; compound alone at 30 μM): 8 h

Reference: US20210283107A1, “Methods to Expand the Spectrum of Gram-Positive Antibiotics” (NORTH CAROLINA STATE UNIVERSITY, priority 2016, published 2021)
